The compounds below were run against CBP (Homo sapiens (Human), UniProt Q92793) (assay: HTRF biochemical assay for CBP activity (TR-FRET, bromodomain)). Details: geometric mean, 10-point 3-fold dilution 33 μM to 1.7 nM, read-out: BROMO IC50 TRF TB CBP (μM gmean).
Type: binding
In short: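 Compounds were tested as 10-point, 3-fold dilutions (33 μM to 1.7 nM final) against CBP protein and peptide ligand in pH 7.5 Hepes buffer with GSH, BGG, BSA and Triton X-100 at room temperature for varying times. The TR-FRET 520/490 ratio gave % inhibition versus no-enzyme and DMSO controls, and IC50 came from 4-parameter logistic fits.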

CBP, sequence (Q92793 1085-1192): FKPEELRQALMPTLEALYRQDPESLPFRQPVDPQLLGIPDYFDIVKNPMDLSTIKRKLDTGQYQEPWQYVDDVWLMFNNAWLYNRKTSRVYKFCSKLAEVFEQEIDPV

Compound | IC50 [µM]
COC(=O)N1CCc2ccc3c(nc(N4CCC(C(=O)O)CC4)n3[C@@H](C)Cc3ccccc3)c2C1 (single isomer, unassigned) [Compound 5] | 0.001 to 0.01
COC(=O)N1CCc2ccc3c(nc([C@H]4CC[C@H](C(=O)O)CC4)n3C[C@H](OC)c3ccccc3)c2C1 [Compound 191] | 0.01 to 0.1
COC(=O)N1CCc2ccc3c(nc([C@H]4CC[C@H](C(=O)O)CC4)n3[C@@H](C)Cc3ccncc3)c2C1 [Compound 216] | 0.01 to 0.1
COC(=O)N1CCc2ccc3c(nc(C4CCCCC4)n3C[C@@H](C(=O)O)c3cc(F)c(C)cc3OC)c2C1 (single isomer, unassigned) [Compound 278] | 0.01 to 0.1
COC(=O)N1CCc2ccc3c(nc([C@H]4CCC[C@H](C(=O)O)C4)n3Cc3cccc(OC)n3)c2C1 [Compound 277] | 0.01 to 0.1
COC(=O)N1CCc2ccc3c(nc(N4CCOCC4)n3[C@@H](C)Cc3cccc(C(=O)O)c3)c2C1 [Compound 182] | 0.01 to 0.1
COC(=O)N1CCc2ccc3c(nc(C4CCCCC4)n3C[C@H]3CCCC[C@H]3C(=O)O)c2C1 [Compound 187] | 0.01 to 0.1
COC(=O)N1CCc2ccc3c(nc(C4CCCCC4)n3CCc3ccc(OC)c(C(=O)O)c3)c2C1 [Compound 242] | 0.01 to 0.1
COC(=O)N1CCc2c(C(=O)O)cc3c(nc(C4CCCCC4)n3CCc3ccccc3)c2C1 [Compound 149] | 0.001 to 0.01
COC(=O)N1CCc2ccc3c(nc(C4CCCCC4)n3C[C@@H](CC(=O)O)c3cc(F)cc(F)c3)c2C1 [Compound 76] | 0.001 to 0.01
COC(=O)N1CCc2cc(C(=O)O)c3c(nc(C4CCCCC4)n3CCc3ccccc3)c2C1 [Compound 181] | 0.01 to 0.1
COC(=O)N1CCc2ccc3c(nc([C@@H]4CCC[C@@H](C(=O)O)C4)n3C[C@H]3CC[C@@H](OC)CC3)c2C1 [Compound 259] | 0.01 to 0.1
COC(=O)N1CCc2ccc3c(nc([C@H]4CC[C@@](C)(C(=O)O)CC4)n3[C@@H](CO)Cc3ccccc3)c2C1 [Compound 341] | 0.1 to 1
COC(=O)N1CCc2ccc3c(nc(C4CCCCC4)n3C[C@H](CC(=O)O)c3cc(F)cc(F)c3)c2C1 [Compound 37] | 0.001 to 0.01
COC(=O)N1CCc2ccc3c(nc(C4CCN(S(=O)(=O)NC(C)=O)CC4)n3[C@@H](C)Cc3ccccc3)c2C1 [Compound 178] | 0.01 to 0.1
COC(=O)N1CCc2ccc3c(nc(C4CCCCC4)n3[C@@H](C)C[C@H]3CCCC[C@H]3C(=O)O)c2C1 [Compound 204] | 0.01 to 0.1
COC(=O)N1CCc2ccc3c(nc(-c4ccc(CC(=O)O)cc4)n3[C@@H](C)Cc3ccccc3)c2C1 [Compound 78] | 0.001 to 0.01
COC(=O)N1CCc2ccc3c(nc(C4CCCCC4)n3C[C@@H](C(=O)O)c3cc(F)ccc3OC)c2C1 [Compound 240] | 0.01 to 0.1
COC(=O)N1CCc2ccc3c(nc([C@H]4CC[C@H](C(=O)O)CC4)n3[C@@H](C)Cc3ccccc3)c2C1 [Compound 192] | 0.01 to 0.1
COC(=O)N1CCc2c(Cl)cc3c(nc(C4CCCCC4)n3C[C@@H](C(=O)O)c3ccccc3)c2C1 [Compound 56] | 0.001 to 0.01
COC(=O)N1CCc2ccc3c(nc(C4CCCC4)n3C[C@H](C(=O)O)c3ccccc3)c2C1 [Compound 55] | 0.001 to 0.01

Compound | IC50 [µM]
COC(=O)N1CCc2ccc3c(nc(C4CCCCC4)n3CC[C@H]3CCCC[C@H]3C(=O)O)c2C1 [Compound 193] | 0.01 to 0.1
COC(=O)N1CCc2ccc3c(nc(N4CCC(C(=O)O)CC4)n3[C@@H](C)Cc3ccccc3Cl)c2C1 (single isomer, unassigned) [Compound 14] | 0.001 to 0.01
COC(=O)N1CCc2ccc3c(nc(-c4ccc(C(=O)O)cc4)n3[C@@H](C)Cc3ccccc3)c2C1 [Compound 77] | 0.001 to 0.01
COC(=O)N1CCc2ccc3c(nc([C@H]4CC[C@H](C(=O)O)CC4)n3Cc3ccc4c(c3)OCC4)c2C1 [Compound 86] | 0.001 to 0.01
COC(=O)N1CCc2ccc3c(nc(C4CCCCC4)n3[C@@H](C)C[C@H]3CC[C@@H](C(=O)O)CC3)c2C1 [Compound 274] | 0.01 to 0.1
COC(=O)N1CCc2ccc3c(nc([C@H]4CC[C@H](C(=O)O)CC4)n3[C@@H](C)Cc3ccc(OC(F)F)cc3)c2C1 [Compound 69] | 0.001 to 0.01
COC(=O)N1CCc2ccc3c(nc([C@H]4CC[C@H](C(=O)O)CC4)n3C[C@H]3CCc4ccccc4C3)c2C1 [Compound 169] | 0.001 to 0.01
COC(=O)N1CCc2ccc3c(nc(N4CCC(C(=O)O)CC4)n3[C@@H](C)Cn3cc(C(F)(F)F)cn3)c2C1 [Compound 46] | 0.001 to 0.01
COC(=O)N1CCc2ccc3c(nc([C@H]4CC[C@H](C(=O)O)CC4)n3[C@@H](C)C[C@]3(C)CC[C@H](OC)CC3)c2C1 [Compound 57] | 0.001 to 0.01
COC(=O)N1CCc2ccc3c(nc(C4CCCCC4)n3C[C@@H](CC(=O)O)c3ccc(F)c(F)c3)c2C1 [Compound 4, (3S)-4-[2-cyclohexyl-8-(methoxycarbonyl)-3H,6H,7H,8H,9H-imidazo[4,5-h]isoquinolin-3-yl]-3-(3,4-difluorophenyl)butanoic acid] | 0.001 to 0.01
COC(=O)N1CCc2ccc3c(nc([C@H]4CC[C@H](C(=O)O)CC4)n3[C@@H](C)C[C@H]3CC[C@H](OC)CC3)c2C1 [Compound 202] | 0.01 to 0.1
COC(=O)N1CCc2ccc3c(nc(C4CCCCC4)n3[C@H](C)C[C@H]3CC[C@H](C(=O)O)CC3)c2C1 [Compound 237] | 0.01 to 0.1
COC(=O)N1CCc2ccc3c(nc(-c4cccc(C(C)(C)C(=O)O)c4)n3[C@@H](C)Cn3cc(Cl)cn3)c2C1 [Compound 185] | 0.01 to 0.1
(2R)-3-[2-cyclohexyl-8-(methoxycarbonyl)-3H,6H,7H,8H,9H-imidazo[4,5-h]isoquinolin-3-yl]-2-(5-fluoro-2-methoxyphenyl)propanoic acid [Compound 241] | 0.01 to 0.1
COC(=O)N1CCc2ccc3c(nc([C@H]4CC[C@](C)(C(=O)O)CC4)n3[C@@H](CO)Cc3ccccc3)c2C1 [Compound 270] | 0.01 to 0.1
COC(=O)N1CCc2ccc3c(nc(C4CCCCC4)n3C[C@@H](CC(=O)O)c3ccccc3C)c2C1 [Compound 98] | 0.001 to 0.01
COC(=O)N1CCc2ccc3c(nc([C@H]4CC[C@H](C(=O)O)CC4)n3C(=O)N(C)c3ccccc3)c2C1 [Compound 292] | 0.1 to 1
COC(=O)N1CCc2ccc3c(nc(C4CCCCC4)n3CC[C@H]3CC[C@H](C(=O)O)CC3)c2C1 [Compound 243] | 0.01 to 0.1
COC(=O)N1CCc2ccc3c(nc(N4CCNCC4)n3[C@@H](C)Cc3ccccc3)c2C1 [Compound 198] | 0.01 to 0.1
COC(=O)N1CCc2ccc3c(nc([C@H]4CC[C@H](C(=O)O)CC4)n3[C@@H](C)C[C@H]3CC[C@@H](OC)CC3)c2C1 [Compound 220] | 0.01 to 0.1
COC(=O)N1CCc2ccc3c(nc([C@H]4CC[C@H](C(=O)O)CC4)n3[C@@H](C)Cc3cccc(F)c3F)c2C1 [Compound 71] | 0.001 to 0.01

Compound | IC50 [µM]
COC(=O)N1CCc2ccc3c(nc(N4CCC[C@H](C(=O)O)C4)n3[C@H](C)Cc3ccccc3)c2C1 [Compound 339] | 0.1 to 1
COC(=O)N1CCc2ccc3c(nc(N4CCC[C@H](C(=O)O)C4)n3[C@@H](C)Cc3ccccc3)c2C1 [Compound 161] | 0.001 to 0.01
COC(=O)N1CCc2ccc3c(nc([C@H]4CC[C@H](C(=O)O)CC4)n3[C@H](C)Cc3ccccc3)c2C1 [Compound 312] | 0.1 to 1
COC(=O)N1CCc2ccc3c(nc([C@H]4CC[C@H](C(=O)O)CC4)n3[C@H](C)Cc3cc(F)cc(F)c3)c2C1 [Compound 253] | 0.01 to 0.1
COC(=O)N1CCc2ccc3c(nc([C@H]4CC[C@H](C(=O)O)CC4)n3[C@H]3CCc4ccccc4C3)c2C1 [Compound 315] | 0.1 to 1
COC(=O)N1CCc2ccc3c(nc([C@H]4CC[C@H](C(=O)O)CC4)n3[C@@H](C)C[C@H]3CCCCO3)c2C1 [Compound 147] | 0.001 to 0.01
COC(=O)N1CCc2ccc3c(nc([C@H]4CC[C@@H](S(=O)(=O)NC(C)=O)CC4)n3[C@H](C)Cc3ccccc3)c2C1 [Compound 162] | 0.001 to 0.01
COC(=O)N1CCc2ccc3c(nc(C4CCCCC4)n3C[C@@H]3CCCC[C@H]3C(=O)O)c2C1 [Compound 227] | 0.01 to 0.1
COC(=O)N1CCc2ccc3c(nc(N4CCC(C(=O)O)CC4)n3[C@@H](C)C(F)(F)c3ccccc3)c2C1 (single isomer, unassigned) [Compound 24] | 0.001 to 0.01
COC(=O)N1CCc2ccc3c(nc(N4CCC(C(=O)O)CC4)n3[C@@H](C)Cc3cc(F)cc(F)c3)c2C1 [Compound 45] | 0.001 to 0.01
COC(=O)N1CCc2ccc3c(nc([C@H]4CCCOC4)n3C[C@@H](C(=O)O)c3ccc(C)cc3)c2C1 [Compound 58] | 0.001 to 0.01
COC(=O)N1CCc2ccc3c(nc(N4CCC(C(=O)O)CC4)n3[C@H](C)Cc3ccccc3)c2C1 (single isomer, unassigned) [Compound 325] | 0.1 to 1
COC(=O)N1CCc2ccc3c(nc(C4CCCCC4)n3[C@H](C)C[C@@H]3CCCC[C@@H]3C(=O)O)c2C1 [Compound 91] | 0.001 to 0.01
COC(=O)N1CCc2ccc3c(nc([C@H]4CC[C@H](C(=O)O)CC4)n3[C@@H](C)Cc3ccccc3F)c2C1 [Compound 314] | 0.1 to 1
COC(=O)N1CCc2ccc3c(nc(C4CCCCC4)n3C[C@@](C)(C(=O)O)c3ccccc3)c2C1 [Compound 150] | 0.001 to 0.01
COC(=O)N1CCc2ccc3c(nc([C@H]4CC[C@H](C(=O)O)CC4)n3[C@@H](C)Cc3ccccc3Cl)c2C1 [Compound 42] | 0.001 to 0.01
COC(=O)N1CCc2ccc3c(nc(-c4ccncc4)n3[C@@H](C)Cc3ccccc3)c2C1 [Compound 109] | 0.001 to 0.01
COC(=O)N1CCc2ccc3c(nc(C4CCC(C(=O)O)CC4)n3[C@H](C)C[C@]3(C)CC[C@H](OC)CC3)c2C1 (some centres unmarked) [Compound 175] | 0.01 to 0.1
COC(=O)N1CCc2ccc3c(nc(C4CCCC4)n3C[C@@H](CC(=O)O)c3ccccc3)c2C1 (single isomer, unassigned) [Compound 34] | 0.001 to 0.01
COC(=O)N1CCc2ccc3c(nc([C@H]4CC[C@](C)(C(=O)O)CC4)n3[C@H](C)Cn3cc(Cl)cn3)c2C1 [Compound 309] | 0.1 to 1
